Several values for one entry are separate records, joined by “and”; a condition that tells them apart may be missing. Equal entries are not always repeated.
System: heavy menstrual bleeding associated with uterine fibroids
Assay: Example 5A 12-week placebo-controlled study in uterine fibroids: efficacy (PBAC, volumes, NRS, UFS-QOL, anemia parameters)
Assay type: in vivo, human
Method: Study participants were Japanese women with HMB (heavy menstrual bleeding) associated with UF (uterine fibroids).
Only the largest myomas among those measurable at Visit 1 were measured throughout the study.
During the period between Visit 2 and 3, in which subjects must have experienced at least 1 regular menstrual cycle, the baseline values concerning efficacy evaluation, including PBAC scores and pain symptoms, were collected. The baseline PBAC score is the total PBAC score for the entire menstrual cycle immediately before Visit 3.
Visit 3 was on Days 1 to 5 of the second menstrual cycle after Visit 1. From Visits 3 to 7, subjects tried to visit the clinics in a fasted state and before taking the study drug.
When a dose was missed before breakfast, subjects took the study drug 30 minutes before either dinner or lunch on the same day.
Pain symptoms, other clinical symptoms and QOL were measured as secondary endpoints. Pain symptoms were evaluated in the patient diary from Visit 1 to the day before Visit 7 using the NRS score. The UFS-QOL score was used to evaluate other clinical symptoms and the QOL of subjects. Subjects completed the UFS-QOL questionnaire at Visits 3, 5, 6 and 7.
In particular, FIGS. 50-52 tabulate hemoglobin concentrations; FIG. 53 tabulates hematocrit percentages; FIG. 54 tabulates serum iron concentrations; and FIG. 55 tabulates ferritin concentrations.
PBAC scores were used in Example 5A, and provide an estimate of menstrual blood loss volume. The PBAC score was evaluated by having subjects record details related to menstrual blood loss on a PBAC score sheet distributed by the sponsor during the treatment period. […] These items represent the level of stained sanitary materials over the course of a menstrual cycle, with a total score ranging from 0 (none) to infinity. Higher scores indicate heavier blood loss. The PBAC score sheet also allows subjects to indicate: whether they experienced bleeding between periods that required sanitary protection; whether they passed clots, and if so, approximate size of the clots; whether they experienced episodes of flooding; and whether they required double protection (used both a pad and tampon simultaneously). As used in the PBAC score sheet of Example 5A, flooding is defined as overflowing, or staining, of clothing or underwear due to menstrual bleeding.
The total PBAC score was derived by summing points for each of the above.
All myoma and uterine volumes referred to herein were evaluated using transvaginal ultrasound. Specifically, the myoma volumes were calculated using the following formula: D1×D2×D3×π/6, where D1 is the longest diameter of the myoma; D2 is the longest diameter of the myoma at an angle perpendicular to D1; and D3 is the diameter of the myoma crossing the intersection of D1 and D2 perpendicular to the D1/D2 plane.

[1] = 20 mg, Week 12, listed as Relugolix
[2] = 40 mg, Week 6-12, listed as Relugolix
[3] = 40 mg, Week 12, listed as Relugolix

CONC(=O)Nc1ccc(-c2sc3c(c2CN(C)C)c(=O)n(-c2ccc(OC)nn2)c(=O)n3Cc2c(F)cccc2F)cc1 [Compound 1, N-(4-(1-(2,6-difluorobenzyl)-5-((dimethylamino)methyl)-3-(6-methoxy-3-pyridazinyl)-2,4-dioxo-1,2,3,4-tetrahydrothieno[2,3-d]pyrimidin-6-yl)phenyl)-N′-methoxyurea]
UFS-QOL HRQL total score (20 mg, Week 8): 9.54±10.904 | UFS-QOL symptom severity score (20 mg, Week 8): 18.53±13.304 | ferritin value (20 mg, Week 8): 16.34 ± 15.659 ng/mL | myoma volume (20 mg, Week 8): 86.34±103.084 cm^3 | uterine volume (20 mg, Week 8): 290.93±413.549 cm^3 | Fe value (serum iron) (20 mg, Week 12): 85.7 ± 44.40 µg/dL | Ht value (20 mg, Week 12): 40.54±3.003% | UFS-QOL HRQL total score (20 mg, Week 12): 9.63±12.735 | UFS-QOL HRQL total, change from baseline (20 mg, Week 12): −2.11±10.529 | UFS-QOL symptom severity score (20 mg, Week 12): 16.56±14.024 | UFS-QOL symptom severity, change from baseline (20 mg, Week 12): −8.97±15.530 | change of Fe value from baseline (20 mg, Week 12): 24.7 ± 53.53 µg/dL | change of Hb from baseline (20 mg, Week 12): 0.83 ± 1.161 g/dL | change of Ht value from baseline (20 mg, Week 12): 2.31±3.522% | change of ferritin value from baseline (20 mg, Week 12): 3.50 ± 10.229 ng/mL | ferritin value (20 mg, Week 12): 18.03 ± 14.427 ng/mL | myoma volume (20 mg, Week 12): 75.09±89.699 cm^3 | percent change of myoma volume from baseline (20 mg, Week 12): −36.69±32.631% | percent change of uterine volume from baseline (20 mg, Week 12): −27.70±28.787% | uterine volume (20 mg, Week 12): 259.44±322.759 cm^3 | UFS-QOL HRQL total, change from baseline [1]: −2 | UFS-QOL symptom severity, change from baseline [1]: −9 | change of Hb from baseline [1]: 0.8 g/dL | percent change of myoma volume from baseline [1]: −37% | percent change of uterine volume from baseline [1]: −28% | Amenorrhea (PBAC from Week 6 to 12 was 0), number of patients (40 mg (n = 55)): 40 n | myoma volume (40 mg, Week 2): 109.29±132.534 cm^3 | uterine volume (40 mg, Week 2): 293.51±288.596 cm^3 | NRS score (40 mg, Week 2-6): 0.29±0.564 | subjects who achieved amenorrhea (PBAC = 0) (40 mg, Week 2-6): 54.5% | subjects with total PBAC score <10 (40 mg, Week 2-6): 65.5% | NRS score (40 mg, Week 2-12): 0.27±0.535 | subjects with total PBAC score <10 (40 mg, Week 2-12): 61.8% | Fe value (serum iron) (40 mg, Week 4): 77.6 ± 44.81 µg/dL | Ht value (40 mg, Week 4): 39.44±4.012% | UFS-QOL HRQL total score (40 mg, Week 4): 11.31±12.082 | UFS-QOL symptom severity score (40 mg, Week 4): 24.10±16.141 | ferritin value (40 mg, Week 4): 15.14 ± 15.133 ng/mL | myoma volume (40 mg, Week 4): 100.04±139.060 cm^3 | uterine volume (40 mg, Week 4): 267.74±275.256 cm^3 | NRS score (40 mg, Week 6-12): 0.25±0.542 | change of total PBAC score from baseline (40 mg, Week 6-12): −238.7±203.34 | subjects who achieved amenorrhea (PBAC = 0) (40 mg, Week 6-12): 72.7% and 73% | subjects with total PBAC score <10 (40 mg, Week 6-12): 83.6% | total PBAC score (mean±SD) (40 mg, Week 6-12): 21.3±56.11 | NRS score [2]: 0.2 | subjects who achieved amenorrhea (PBAC = 0) [2]: (72.7) % | Fe value (serum iron) (40 mg, Week 8): 78.2 ± 41.91 µg/dL | Ht value (40 mg, Week 8): 40.23±3.620% | UFS-QOL HRQL total score (40 mg, Week 8): 11.20±12.279 | UFS-QOL symptom severity score (40 mg, Week 8): 18.08±15.187 | ferritin value (40 mg, Week 8): 18.10 ± 16.177 ng/mL | myoma volume (40 mg, Week 8): 86.01±120.639 cm^3 | uterine volume (40 mg, Week 8): 224.91±227.442 cm^3 | Fe value (serum iron) (40 mg, Week 12): 82.0 ± 36.93 µg/dL | Ht value (40 mg, Week 12): 40.53±3.307% | UFS-QOL HRQL total score (40 mg, Week 12): 9.52±10.885 | UFS-QOL HRQL total, change from baseline (40 mg, Week 12): −5.52±15.871 | UFS-QOL symptom severity score (40 mg, Week 12): 14.05±15.272 | UFS-QOL symptom severity, change from baseline (40 mg, Week 12): −11.25±17.274 | change of Fe value from baseline (40 mg, Week 12): 25.5 ± 44.43 µg/dL | change of Hb from baseline (40 mg, Week 12): 0.92 ± 1.183 g/dL | change of Ht value from baseline (40 mg, Week 12): 2.46±3.445% | change of ferritin value from baseline (40 mg, Week 12): 8.91 ± 13.131 ng/mL | ferritin value (40 mg, Week 12): 21.84 ± 21.509 ng/mL | myoma volume (40 mg, Week 12): 77.88±110.873 cm^3 | percent change of myoma volume from baseline (40 mg, Week 12): −38.59±34.197% | percent change of uterine volume from baseline (40 mg, Week 12): −40.90±37.233% | uterine volume (40 mg, Week 12): 208.03±209.312 cm^3 | UFS-QOL HRQL total, change from baseline [3]: −6 | UFS-QOL symptom severity, change from baseline [3]: −11 | change of Hb from baseline [3]: 0.9 g/dL | percent change of myoma volume from baseline [3]: −39% | percent change of uterine volume from baseline [3]: −41%
